In patent publication US10160705B2, “Class of HDAC inhibitors expands the renal progenitor cells population and improves the rate of recovery from acute kidney injury” (University of Pittsburgh—Of the Commonwealth System of …, priority 2011, dated 2018):
Like-named read-outs stand apart in the source and are kept apart here.

Legend:
renal progenitor cells = test: In situ hybridization for lhx1a expression in 10-somite embryos (renal progenitor cell expansion); type: in vivo; conditions: for responders at 1.5 µM / responders at 0.2 µM / responders at 0.4 µM / responders at 3 µM / EC50 / responders at 0.8 µM: Danio rerio; for EC50: first pass EC50 from percent expansion (Excel trendline), average where several experiments; for Lhx1a expansion caused by analog treatment, 200 nM: 200 nM from 2 hpf; for Lhx1a expansion caused by analog treatment, 400 nM: 400 nM from 2 hpf; on Lhx1a expansion caused by analog treatment, 200 nM: key: effective (+); partially effective (+/−); ineffective (−); Analogs that killed all embryos at a given concentration before reaching 10 somites are listed as XX; on Lhx1a expansion caused by analog treatment, 3 μM: key: effective (+); partially effective (+/−); ineffective (−); Analogs that killed all embryos at a given concentration before reaching 10 somites are listed as XX; on Lhx1a expansion caused by analog treatment, 400 nM: key: effective (+); partially effective (+/−); ineffective (−); Analogs that killed all embryos at a given concentration before reaching 10 somites are listed as XX; on Lhx1a expansion caused by analog treatment, 800 nM: key: effective (+); partially effective (+/−); ineffective (−); Analogs that killed all embryos at a given concentration before reaching 10 somites are listed as XX
Experimental: PTBA was synthesized as described below. Hydroxyurea and aphidicolin were obtained from Sigma-Aldrich.
In situ hybridization and immunocytochemistry: In situ hybridization was performed as previously described with some modifications.142 Hybridization temperature was 65° C. Embryos were blocked in 2% blocking reagent (Roche) with 5% sheep serum in MAB (100 mM maleic acid and 150 mM NaCl [pH 7.5]). Whole-mount immunocytochemistry with 1:25 mouse anti-α6F antibody (Developmental Studies Hybridoma Bank) and 1:100 Cy3 secondary antibody (Jackson ImmunoResearch) was performed as described previously.108 Embryos were embedded in JB-4 for sectioning per the manufacturer's instructions (Polysciences), sectioned at 5 μm, and mounted with Cytoseal 60 (Richard-Allan Scientific).
The remaining PTBA analogs were synthesized.
In situ hybridization for lhx1a was performed as described above. […] Compounds were classified as effective, partially-effective or ineffective based on comparison to the effects of PTBA at a given concentration.
Testing of the compounds is on-going, but for those tested, Table 6 provides first pass EC50s based upon colormetric in situ hybridizations for the Lhx1a mRNA expression levels. After the procedure is run, in situ hybridization is done for the lhx1 mRNA expression and the number of embryos that show an expanded kidney field is manually counted to establish the percent of embryos showing expansion. Then the EC50 is determined by plotting the percent expansion in Excel, graphing the results and using the trendline function to determine the 50 percent point.

zebrafish embryos = test: Phenotypic screen for edema and survival in zebrafish larvae at 72 hpf; conditions: number of larvae (of 36); 3 μM from 2 hpf, scored at 72 hpf
Experimental: The screen was performed in zebrafish embryos using the National Cancer Institute's Developmental Therapeutics Program (NCI/DTP) Diversity Set I. This library contains 1990 compounds selected by pharmacophore modeling to represent the more than 140,000 small molecules maintained in the NCI/DTP Open Repository. Compounds from the NCI/DTP Diversity Set I were diluted to 10 μM in E3 embryo medium (5 mM NaCl, 0.33 mM CaCl2, 0.33 mM MgSO4, and 0.17 mM KCl) in a final DMSO concentration of 0.5% and arrayed in 96-well plates. Beginning at approximately 2 hpf, embryos were transferred to each well in groups of five using a glass pipette. The plates were incubated at 28.5° C. for 70 hours. Individual wells were then scored for a dominant phenotype, representative of at least four of the five embryos. The primary objective was to identify compounds that caused edema in treated embryos at 72 hpf. Small molecules generating edema were retested once for verification, before obtaining additional compound from the NCI/DTP Open Repository.
PTBA was synthesized as described below. Hydroxyurea and aphidicolin were obtained from Sigma-Aldrich. Groups of 20 to 30 chorionated 2 hpf embryos were arrayed in individual wells of 12-well plates. E3 medium was removed with a glass pipette and replaced with 1.5 ml treatment solutions containing 0.5% DMSO in E3 with or without compound at the reported concentrations. Treatments for all studies were initiated at 2 hpf, except for the temporal studies (FIG. 6) and the HUA studies (FIG. 11). HUA studies were performed as described previously (Zhang, L., et al. Cell cycle progression is required for zebrafish somite morphogenesis but not segmentation clock function. Development 135, 2065-2070, (2008)), with the following modifications. HUA in 0.5% DMSO was added at early gastrulation (5 hpf) and PTBA was subsequently added at late gastrulation (8 hpf) to allow for penetration of the proliferation inhibitors. All embryos were incubated at 28.5° C. until the required developmental stage.
Following 70 hours of treatment (as described above), edemic phenotypes in 72 hpf larvae were scored using a phenotype-based classification system. Wild type: no visible edema or developmental delay. […] Significant effects (p<0.05) on survival were determined by two-tailed Fisher's exact test in comparison with the 0 μM PTBA treatment group.
PTBA and methyl-4-(phenylthio)butanoate were synthesized as described above. 4-(Naphthalen-2-ylthio)butanoic acid (NSC2733) and 3-(phenylthio)benzoic acid (NSC113994), were obtained from the NCI/DTP Open Repository. APHA compound 8, Apicidin, butanoic acid, PBA, 4-phenoxybutanoic acid, 5-phenylpentanoic acid, Scriptaid, TSA, and valproic acid were obtained from Sigma-Aldrich. MS-275 and SAHA were obtained from Cayman Chemical Co. 4-(phenylsulfonyl)butanoic acid was obtained from Matrix Scientific. Tubacin was a gift of Dr. Ralph Mazitschek of the Broad Institute (Cambridge, Mass.). The remaining PTBA analogs were synthesized. Three independent groups of 12 chorionated 2 hpf embryos were arrayed in individual wells of 24-well plates. E3 medium was removed with a glass pipette and replaced with 800 μl treatment solutions containing 0.5% DMSO in E3 with or without compound at the reported concentrations.
Phenotypic screening of PTBA analogs was performed identically to the concentration-response experiments detailed above. Embryos were treated with each PTBA analog from 2 to 72 hpf as described above.

[1] = 800 nM from 2 hpf, 10-somite embryos
[2] = 1.5 μM from 2 hpf, 10-somite embryos
[3] = 3 μM from 2 hpf, 10-somite embryos
[4] = 1.5 μM from 2 hpf, 10-somite embryos, read-out: lhx1a expansion, percent of treated embryos
[5] = percent of embryos with expanded kidney field, 200 nM, read-out: Expansion of Cells (including repeats* and recounts**) 200 nM
[6] = percent of embryos with expanded kidney field, 400 nM, read-out: Expansion of Cells (including repeats* and recounts**) 400 nM
[7] = percent of embryos with expanded kidney field, 1.5 μM, read-out: Expansion of Cells (including repeats* and recounts**) 1.5 μM
[8] = percent of embryos with expanded kidney field, 3 μM, read-out: Expansion of Cells (including repeats* and recounts**) 3 μM
[9] = percent of embryos with expanded kidney field, 800 nM, read-out: Expansion of Cells (including repeats* and recounts**) 800 nM
[10] = percent of embryos with expanded kidney field, 3 μM
[11] = read-out: lhx1a expansion, percent of treated embryos, 400 nM from 2 hpf, 10-somite embryos
[12] = read-out: lhx1a expansion, percent of treated embryos, 800 nM from 2 hpf, 10-somite embryos
[13] = 3 μM from 2 hpf, 10-somite embryos, read-out: lhx1a expansion, percent of treated embryos

Row | Structure (SMILES) | Lhx1a expansion caused by analog treatment, 800 nM (renal progenitor cells; [1]) | Lhx1a expansion caused by analog treatment, 1.5 μM (renal progenitor cells; [2]) | Lhx1a expansion caused by analog treatment, 3 μM (renal progenitor cells; [3]) | responders at 1.5 µM (renal progenitor cells; [4]) [%] | responders at 1.5 µM (renal progenitor cells; [7]) [%] | responders at 3 µM (renal progenitor cells; [8]) [%] | Dead (zebrafish embryos) | Edemic 1 (E1) (zebrafish embryos) | Edemic 2 (E2) (zebrafish embryos) | Edemic 3 (E3) (zebrafish embryos) | Wild-type (WT) (zebrafish embryos) | Lhx1a expansion caused by analog treatment, 200 nM (renal progenitor cells; 10-somite embryos) | Lhx1a expansion caused by analog treatment, 400 nM (renal progenitor cells; 10-somite embryos) | other results
1 | CCCOC(=O)CCCSc1ccccc1 [UPHD-00024, propyl 4-(phenylsulfanyl)butanoate] | +/− | + | + | 89 | 89 | 94 | 6 | 7 | 8 | 15 | 0 |  |  | responders at 0.2 µM (renal progenitor cells; [5]): 0%; responders at 0.4 µM (renal progenitor cells; [6]): 10%; EC50 (renal progenitor cells): 1270 nM
2 | COC(=O)CCCSc1ccc(C)cc1 [UPHD-00026, methyl 4-[(4-methyl-phenyl)sulfanyl]butanoate] | + | + | + | 100 | 100 | 100 | 11 | 0 | 2 | 23 | 0 | − | − | responders at 0.2 µM (renal progenitor cells; [5]): 3%; responders at 0.4 µM (renal progenitor cells; [6]): 14%; responders at 0.8 µM (renal progenitor cells; [9]): 49%
3 | O=C(CCCSc1ccc(Cl)cc1)NO [UPHD-00027, 4-[(4-chloro-phenyl)sulfanyl]-N-hydroxybutanamide] | +/− | + | + | 97 | 97 | 94 | 14 | 0 | 0 | 22 | 0 |  |  | responders at 0.8 µM (renal progenitor cells; [9]): 17%
4 | Cc1ccc(SCCCC(=O)NO)cc1 [UPHD-00028, N-hydroxy-4-[(4-methyl-phenyl)sulfanyl]butanamide] | + | + | + | 97 | 97 | 100 | 22 | 0 | 0 | 14 | 0 | − | − | responders at 0.4 µM (renal progenitor cells; [6]): 9%; responders at 0.8 µM (renal progenitor cells; [9]): 61%; Expansion of Cells (including repeats* and recounts**) 3 μM (renal progenitor cells; [10]): 100%
5 | O=C(CCCSc1ccc(F)cc1)NO [UPHD-00029, 4-[(4-fluoro-phenyl)sulfanyl]-N-hydroxybutanamide] | + | + | + | 100 | 100 | 100 | 28 | 0 | 0 | 8 | 0 | − | +/− | responders at 0.2 µM (renal progenitor cells; [5]): 6%; responders at 0.4 µM (renal progenitor cells; [11]): 35%; responders at 0.8 µM (renal progenitor cells; [12]): 60%; EC50 (renal progenitor cells): 1310 nM
6 | COC(=O)CCCSc1ccc(F)cc1 [UPHD-00030, methyl 4-[(4-fluoro-phenyl)sulfanyl]butanoate] | + | + |  | 100 | 100 |  | 36 | 0 | 0 | 0 | 0 | +/− | +/− | lhx1a expansion, percent of treated embryos (renal progenitor cells; [1]): 64%; lethality before the 10-somite stage (renal progenitor cells; 3 μM): killed all treated embryos; responders at 0.2 µM (renal progenitor cells; read-out: lhx1a expansion, percent of treated embryos, 200 nM from 2 hpf, 10-somite embryos): 22%; responders at 0.4 µM (renal progenitor cells; [11]): 26%; responders at 0.8 µM (renal progenitor cells; [12]): 64%; EC50 (renal progenitor cells): 485 nM; Expansion of Cells (including repeats* and recounts**) 3 μM (renal progenitor cells; [10]): All dead
7 | CCC(C)OC(=O)CCCSc1ccccc1 (stereo not shown) [VNK-I-154] | +/− | + | + | 89 |  |  | 1 | 19 | 12 | 2 | 2 |  |  | 
8 | COc1ccc(SCCCC(=O)NO)cc1 [VNK-I-289, 4-[(4-methoxy-phenyl)sulfanyl]-N-hydroxybutanamide] |  |  | +/− |  |  |  | 0 | 20 | 0 | 0 | 16 |  |  | responders at 3 µM (renal progenitor cells; [13]): 31%
9 | COC(=O)CCCSc1ccc(Br)cc1 [VNK-I-290] |  |  | +/− |  |  |  | 0 | 27 | 1 | 0 | 8 |  |  | responders at 3 µM (renal progenitor cells; [13]): 74%
10 | O=C(CCCSc1ccc(Br)cc1)NO [VNK-I-292, 4-[(4-bromo-phenyl)sulfanyl]-N-hydroxybutanamide] |  | +/− | + | 47 |  |  | 0 | 23 | 12 | 0 | 1 |  |  | 
11 | O=C(O)CCCNc1ccccc1 [VNK-I-300, 4-(phenylamino)butanoic acid] |  |  | − |  |  |  | 0 | 1 | 0 | 0 | 35 |  |  | 
